Literature values as cited in US7332525B2, “Method of treatment of prostate cancer and composition for treatment thereof” (priority 2003, dated 2008).

Columns and labels:
[1] = system: metastasized prostate cancer; settings: in vivo
[2] = system: metastasized, hormone refractory prostate cancer; settings: high doses of tamoxifen alone; patients with metastasized and hormone refractory prostate cancer

Row | Structure (SMILES) | effect on the progression of metastasized prostate cancer [1] | effect on prostate cancer cells [2]
1 | CN(C)CCOc1ccc(C(=C(CCCl)c2ccccc2)c2ccccc2)cc1 [toremifene, 4-chloro-1,2-diphenyl-1-{4-[2-(N,N-dimethylamino)ethoxy]-phenyl}-1-butene] | some effect | –
2 | CC/C(=C(\c1ccccc1)c1ccc(OCCN(C)C)cc1)c1ccccc1.O=C(O)CC(O)(CC(=O)O)C(=O)O [tamoxifen, (Z)2-[4-(1,2-diphenyl-1-butenyl)phenoxy]-N, N-dimethylethanamine 2-hydroxy-1,2,3-propanetricarboxylate (1:1)] | – | some effect
3 | O=C(c1ccc(OCCN2CCCCC2)cc1)c1c(-c2ccc(O)cc2)sc2cc(O)ccc12 [raloxifene, 6-hydroxy-2(4-hydroxyphenyl)-3-[4-(2-piperdinoethoxy)benzoyl]benzo[b]thiophene] | some effect | –
